Experimental findings from ChEMBL document CHEMBL5506051, “Structure-Activity Relationships toward the Identification of a High-Potency Selective Human Toll-like Receptor-7 Agonist” (J Med Chem, 2024) are described below.

pEC50: −log10 of the molar value.

Data set [1] concerns the target T1, Toll-like receptor 8 (Homo sapiens, UniProt Q9NR97).
T1 sequence (Q9NR97 whole entry): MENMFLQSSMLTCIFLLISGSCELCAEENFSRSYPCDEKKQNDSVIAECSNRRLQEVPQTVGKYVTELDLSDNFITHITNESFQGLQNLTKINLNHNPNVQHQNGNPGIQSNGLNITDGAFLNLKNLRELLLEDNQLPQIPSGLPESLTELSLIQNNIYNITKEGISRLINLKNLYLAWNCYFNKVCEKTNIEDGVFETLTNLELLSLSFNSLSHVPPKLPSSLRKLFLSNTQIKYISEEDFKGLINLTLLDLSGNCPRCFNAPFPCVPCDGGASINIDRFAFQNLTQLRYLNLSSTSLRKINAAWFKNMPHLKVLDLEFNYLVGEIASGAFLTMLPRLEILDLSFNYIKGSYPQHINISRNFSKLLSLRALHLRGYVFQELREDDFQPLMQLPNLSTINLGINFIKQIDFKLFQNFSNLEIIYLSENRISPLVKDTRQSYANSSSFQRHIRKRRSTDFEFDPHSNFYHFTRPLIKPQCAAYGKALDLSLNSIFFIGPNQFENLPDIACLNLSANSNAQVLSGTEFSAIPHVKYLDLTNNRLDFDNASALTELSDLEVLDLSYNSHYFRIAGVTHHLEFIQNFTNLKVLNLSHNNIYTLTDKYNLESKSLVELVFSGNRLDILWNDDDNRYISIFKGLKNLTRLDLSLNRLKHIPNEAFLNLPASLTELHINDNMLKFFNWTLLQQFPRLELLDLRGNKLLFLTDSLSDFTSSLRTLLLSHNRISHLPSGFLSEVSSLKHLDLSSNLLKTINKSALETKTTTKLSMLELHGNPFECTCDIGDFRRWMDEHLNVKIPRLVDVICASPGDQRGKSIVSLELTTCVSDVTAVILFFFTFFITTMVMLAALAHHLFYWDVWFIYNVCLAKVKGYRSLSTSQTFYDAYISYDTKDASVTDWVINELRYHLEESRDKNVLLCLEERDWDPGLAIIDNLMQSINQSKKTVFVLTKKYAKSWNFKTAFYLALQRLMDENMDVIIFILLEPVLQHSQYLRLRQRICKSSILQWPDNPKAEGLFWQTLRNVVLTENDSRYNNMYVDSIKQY
Description: Agonist activity at human TLR8 in HEK-Blue hTLR8 cells assessed as increase in inducible SEAP level incubated for overnight by QUANTI-Blue reagent based assay. The class given is cell-based.

The species entered for data set [2] is Homo sapiens. Description: Selectivity index, ratio of EC50 for agonist activity at human TLR7 in HEK-Blue hTLR7 cells to EC50 for agonist activity at human TLR8 in HEK-Blue hTLR8 cells. The class given is cell-based.
In data set [3] the target is T2, Toll-like receptor 7 (Homo sapiens, UniProt Q9NYK1).
T2 sequence (Q9NYK1 whole entry): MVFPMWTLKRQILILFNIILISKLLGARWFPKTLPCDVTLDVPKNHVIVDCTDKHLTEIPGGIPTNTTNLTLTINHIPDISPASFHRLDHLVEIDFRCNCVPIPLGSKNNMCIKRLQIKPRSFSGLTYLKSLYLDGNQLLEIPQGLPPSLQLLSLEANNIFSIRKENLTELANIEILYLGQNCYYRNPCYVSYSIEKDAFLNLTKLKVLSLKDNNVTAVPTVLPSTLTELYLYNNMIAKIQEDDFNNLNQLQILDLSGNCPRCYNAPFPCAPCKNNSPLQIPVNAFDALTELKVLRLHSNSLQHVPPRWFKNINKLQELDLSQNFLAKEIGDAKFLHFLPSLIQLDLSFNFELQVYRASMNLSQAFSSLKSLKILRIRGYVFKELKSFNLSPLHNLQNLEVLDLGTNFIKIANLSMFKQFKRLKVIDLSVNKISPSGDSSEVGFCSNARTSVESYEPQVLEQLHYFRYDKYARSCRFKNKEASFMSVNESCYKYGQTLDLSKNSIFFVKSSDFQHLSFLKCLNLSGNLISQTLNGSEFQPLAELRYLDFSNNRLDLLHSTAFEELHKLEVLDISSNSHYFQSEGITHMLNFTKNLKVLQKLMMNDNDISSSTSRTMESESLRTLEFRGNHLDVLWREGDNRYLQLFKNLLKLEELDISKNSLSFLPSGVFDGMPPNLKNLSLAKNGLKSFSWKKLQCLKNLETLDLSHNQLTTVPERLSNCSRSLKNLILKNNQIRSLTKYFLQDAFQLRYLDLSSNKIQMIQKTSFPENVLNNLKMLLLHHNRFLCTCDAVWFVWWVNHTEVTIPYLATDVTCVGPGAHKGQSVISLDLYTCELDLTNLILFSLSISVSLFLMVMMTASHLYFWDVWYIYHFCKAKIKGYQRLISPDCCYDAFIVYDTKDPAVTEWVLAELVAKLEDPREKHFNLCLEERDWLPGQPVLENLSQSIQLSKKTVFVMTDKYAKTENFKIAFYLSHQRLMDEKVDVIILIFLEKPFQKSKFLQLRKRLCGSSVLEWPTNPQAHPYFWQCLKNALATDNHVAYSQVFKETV
Nature of the data set: Agonist activity at human TLR7 in HEK-Blue hTLR7 cells assessed as increase in inducible SEAP level incubated for overnight by QUANTI-Blue reagent based assay. The data set is classed as cell-based.

The target of data set [4] is T3, Toll-like receptor 7 (Homo sapiens) (UniProt Q9NYK1).
T3 sequence (whole entry): T2 sequence (Q9NYK1 whole entry)
Nature of the data set: Potency index, ratio of BBIQ EC50 to test compound EC50 for agonist activity at human TLR7 in HEK-Blue hTLR7 cells assessed as increase in inducible SEAP level incubated for overnight by QUANTI-Blue reagent based assay. The class given is cell-based. The note with it: filed as agonist.

Data set [5] deals with Panel NCI-60 (60 carcinoma cell lines). Nature of the data set: Cytotoxicity against human Panel NCI-60 (60 carcinoma cell lines) at <=10 uM. The data set is classed as toxicity, cell-based.
The species entered for data set [6] is Homo sapiens. Nature of the data set: Selectivity ratio of agonist activity at human TLR8 to agonist activity at human TLR7.

Regarding `CCCCc1nc2c(N)nc3ccccc3c2n1Cc1ccc(C(=O)NC)cc1`, the figures for the pEC50 in data set [1] and in data set [3] were 4.50 and 6.70, respectively. The Ratio EC50 in data set [2] came out at 159; in data set [4], 8. For the same compound, in data set [5], the Activity entry is reported as “Non-Toxic”.

Regarding `CCCCc1nc2c(N)nc3ccccc3c2n1Cc1ccc(OC)cc1`, in data set [3], the pEC50 – broadly, the EC50 on a negative log10 scale, so that one unit is a factor of ten – is 5.74. As for `CCCCOc1nc(N)c2c(n1)N(Cc1cccc(CN3CCCC3)c1)CC(=O)N2`, the Selectivity ratio in data set [6] is 30.

Regarding `CCCCc1nc2c(N)nc3ccccc3c2n1Cc1ccc(C(=O)NCCO)cc1`, the pEC50 in data set [1] was 4.30. Consider `CCCCc1nc2c(N)nc3ccccc3c2n1Cc1ccc(C(N)=O)cc1`, for which the pEC50 in data set [1] is 4.74; in data set [3] it was 6.49. Further, the Ratio EC50 in data set [2] amounted to 57; in data set [4] it was 3. For `CCCCc1nc2c(N)nc3ccccc3c2n1Cc1ccc(O)cc1`, in data set [1], the pEC50 was 3.90. For the compound `CC(C)Cn1cnc2c(N)nc3ccccc3c21` [IMIQUIMOD], the pEC50 in data set [3] was 5.08.

Regarding `CCCCc1nc2c(N)nc3ccccc3c2n1Cc1ccc(C(=O)NN)cc1`, the pEC50 in data set [3] was 5.96. Consider `CCCCCCCCNC(=O)c1ccc(Cn2c(CCCC)nc3c(N)nc4ccccc4c32)cc1`, for which the Activity result in data set [5] is listed as “Non-Toxic”.

On to `CCCCc1nc2c(N)nc3ccccc3c2n1Cc1ccccc1`, for which the pEC50 in data set [3] is 6.07. Take `CCCCc1nc2c(N)nc3ccccc3c2n1Cc1ccc(C(=O)NCC(C)(C)O)cc1`: the pEC50 in data set [1] was 4.59; in data set [3], 6.51.
